Experimental data taken from patent US9079859B2, “Synthetic lethal targeting of glucose transport” (AUCKLAND UNISERVICES LIMITED, priority 2011, dated 2015).

Tests used:
[1] = system: p53; experiment: DNA damage response (p53, phospho-p53 Western blot); format: cell-based; conditions: RCC4 and RCC4/VHL; 1.25, 2.5 and 5 μM
[2] = system: 786/VHL; experiment: RCC panel sensitivity (Table 2); format: cell-based; conditions: VHL wild-type
[3] = system: UMRC6; experiment: RCC panel sensitivity (Table 2); format: cell-based; conditions: UMRC6, VHL mutant
[4] = target: T1, CaMKI (Homo sapiens, UniProt Q14012); experiment: Kinase Profiler; format: biochemical; conditions: STF-31 10 μM
T1 construct: purchased Millipore (Kinase Profiler service)
T1 sequence (Q14012 whole entry): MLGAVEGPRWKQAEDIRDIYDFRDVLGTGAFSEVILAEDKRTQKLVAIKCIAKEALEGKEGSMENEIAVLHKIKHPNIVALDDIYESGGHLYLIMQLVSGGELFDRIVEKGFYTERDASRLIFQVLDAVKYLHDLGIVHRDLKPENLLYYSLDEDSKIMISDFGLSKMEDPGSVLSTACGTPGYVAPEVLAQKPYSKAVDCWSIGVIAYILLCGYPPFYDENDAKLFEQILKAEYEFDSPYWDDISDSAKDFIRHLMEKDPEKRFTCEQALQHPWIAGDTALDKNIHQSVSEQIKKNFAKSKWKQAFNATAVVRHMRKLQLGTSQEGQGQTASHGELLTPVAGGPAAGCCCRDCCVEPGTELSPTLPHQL
Protocol: (§1) Cell Culture and Reagents. All cells were grown in DMEM+10% FCS. ACHN and ACHN shVHL were a kind gift from George V. Thomas (UCLA). HIF overexpressing clones were described previously (Sutphin et al., Cancer Res, 67:5896-5905 (2007)). Transfection of RNA oligos were performed with DnarmaFECT Reagent 1 (Dharmcon), according to manufacturer's directions. ON-TARGETplus SMART pools against HIF-1 R/ARNT were purchased from Dharmacon. Inducible shRNAmir to GLUT1 was purchased from Open Biosystems. GLUT1 was detected with anti-GLUT1 antibody from NeoMarkers/LabVision/Fisher. For immunofluorescent studies, GLUT1, GLUT2, and GLUT3 antibodies were purchased from R&D. Pyruvate/lactate levels and hexokinase activity were both measured by fluorometric assay (BioVision and Sigma-Aldrich, respectively). ATP levels were measured by bioluminescence assay (ATP Determination Kit from Molecular Probes/Invitrogen). In vitro kinase activities were performed by Millipore Kinase Profiler.

[5] = target: PI3K; experiment: Kinase Profiler; format: biochemical; conditions: STF-31 10 μM
Protocol: as §1

[6] = target: T2, FGFR1 (Homo sapiens, UniProt P11362); experiment: Kinase Profiler; format: biochemical; conditions: STF-31 10 μM
T2 construct: purchased Millipore Kinase Profiler
T2 sequence (P11362 22-822, species assumed): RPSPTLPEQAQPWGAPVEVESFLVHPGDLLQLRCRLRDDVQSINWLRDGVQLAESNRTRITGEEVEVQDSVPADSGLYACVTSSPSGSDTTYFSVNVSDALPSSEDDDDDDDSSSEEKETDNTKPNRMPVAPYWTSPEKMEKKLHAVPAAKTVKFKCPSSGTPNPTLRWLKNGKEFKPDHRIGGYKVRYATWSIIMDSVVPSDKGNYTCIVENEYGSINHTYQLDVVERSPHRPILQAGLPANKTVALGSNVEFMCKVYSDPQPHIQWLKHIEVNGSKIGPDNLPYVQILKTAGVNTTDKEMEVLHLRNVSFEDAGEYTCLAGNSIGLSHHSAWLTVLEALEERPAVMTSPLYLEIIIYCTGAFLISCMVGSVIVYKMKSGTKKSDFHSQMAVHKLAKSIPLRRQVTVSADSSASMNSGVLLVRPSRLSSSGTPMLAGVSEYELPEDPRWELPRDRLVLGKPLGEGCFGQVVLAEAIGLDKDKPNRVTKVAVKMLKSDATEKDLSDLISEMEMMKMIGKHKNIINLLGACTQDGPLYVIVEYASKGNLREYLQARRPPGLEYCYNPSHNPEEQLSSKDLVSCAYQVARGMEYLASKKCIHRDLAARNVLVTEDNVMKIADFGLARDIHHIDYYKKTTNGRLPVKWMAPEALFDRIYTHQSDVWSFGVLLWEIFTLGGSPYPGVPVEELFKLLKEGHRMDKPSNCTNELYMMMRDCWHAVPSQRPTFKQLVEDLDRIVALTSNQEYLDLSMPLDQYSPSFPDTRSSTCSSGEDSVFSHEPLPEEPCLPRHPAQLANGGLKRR
Protocol: as §1

[7] = target: T3, cSRC (Homo sapiens, UniProt P12931); experiment: Kinase Profiler; format: biochemical; conditions: STF-31 10 μM
T3 construct: purchased Millipore (Kinase Profiler service)
T3 sequence (P12931 whole entry, species assumed): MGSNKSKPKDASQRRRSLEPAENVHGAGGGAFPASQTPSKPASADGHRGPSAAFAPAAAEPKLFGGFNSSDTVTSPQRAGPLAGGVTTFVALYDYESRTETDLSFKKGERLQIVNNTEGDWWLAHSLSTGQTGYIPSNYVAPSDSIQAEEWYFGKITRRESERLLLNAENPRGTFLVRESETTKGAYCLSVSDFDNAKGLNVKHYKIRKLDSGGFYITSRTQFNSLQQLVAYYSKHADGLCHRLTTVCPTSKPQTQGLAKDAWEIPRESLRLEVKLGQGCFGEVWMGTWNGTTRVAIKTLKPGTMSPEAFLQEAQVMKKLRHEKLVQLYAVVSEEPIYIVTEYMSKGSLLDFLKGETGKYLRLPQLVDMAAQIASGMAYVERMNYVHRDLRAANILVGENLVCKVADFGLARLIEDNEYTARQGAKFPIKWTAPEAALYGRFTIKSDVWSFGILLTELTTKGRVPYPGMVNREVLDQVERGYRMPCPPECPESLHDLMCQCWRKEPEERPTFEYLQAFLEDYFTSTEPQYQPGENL
Protocol: as §1

[8] = target: T4, PDK1 (Homo sapiens, UniProt O15530); experiment: Kinase Profiler; format: biochemical; conditions: STF-31 10 μM
T4 construct: purchased Millipore Kinase Profiler
T4 sequence (O15530 whole entry): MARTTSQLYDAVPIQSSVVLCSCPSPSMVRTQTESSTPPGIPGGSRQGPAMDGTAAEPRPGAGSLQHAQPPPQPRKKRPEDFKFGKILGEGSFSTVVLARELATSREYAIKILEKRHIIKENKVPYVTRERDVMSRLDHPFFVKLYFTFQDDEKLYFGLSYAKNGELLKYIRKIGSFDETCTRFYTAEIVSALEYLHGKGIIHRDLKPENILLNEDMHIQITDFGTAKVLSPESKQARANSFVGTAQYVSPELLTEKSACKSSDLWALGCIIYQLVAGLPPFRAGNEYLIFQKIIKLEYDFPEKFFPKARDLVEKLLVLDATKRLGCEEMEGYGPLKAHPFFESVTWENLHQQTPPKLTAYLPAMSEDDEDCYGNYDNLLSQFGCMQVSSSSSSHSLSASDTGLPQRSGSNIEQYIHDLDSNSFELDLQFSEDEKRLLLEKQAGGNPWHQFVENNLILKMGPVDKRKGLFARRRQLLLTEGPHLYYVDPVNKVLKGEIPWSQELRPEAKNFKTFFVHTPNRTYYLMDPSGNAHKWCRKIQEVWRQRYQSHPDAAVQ
Protocol: as §1

[9] = target: T5, cKit(D816H) (Homo sapiens, UniProt P10721, D816H); experiment: Kinase Profiler; format: biochemical; conditions: STF-31 10 μM
T5 construct: purchased Millipore (Kinase Profiler service)
T5 sequence (P10721 26-976 D816H): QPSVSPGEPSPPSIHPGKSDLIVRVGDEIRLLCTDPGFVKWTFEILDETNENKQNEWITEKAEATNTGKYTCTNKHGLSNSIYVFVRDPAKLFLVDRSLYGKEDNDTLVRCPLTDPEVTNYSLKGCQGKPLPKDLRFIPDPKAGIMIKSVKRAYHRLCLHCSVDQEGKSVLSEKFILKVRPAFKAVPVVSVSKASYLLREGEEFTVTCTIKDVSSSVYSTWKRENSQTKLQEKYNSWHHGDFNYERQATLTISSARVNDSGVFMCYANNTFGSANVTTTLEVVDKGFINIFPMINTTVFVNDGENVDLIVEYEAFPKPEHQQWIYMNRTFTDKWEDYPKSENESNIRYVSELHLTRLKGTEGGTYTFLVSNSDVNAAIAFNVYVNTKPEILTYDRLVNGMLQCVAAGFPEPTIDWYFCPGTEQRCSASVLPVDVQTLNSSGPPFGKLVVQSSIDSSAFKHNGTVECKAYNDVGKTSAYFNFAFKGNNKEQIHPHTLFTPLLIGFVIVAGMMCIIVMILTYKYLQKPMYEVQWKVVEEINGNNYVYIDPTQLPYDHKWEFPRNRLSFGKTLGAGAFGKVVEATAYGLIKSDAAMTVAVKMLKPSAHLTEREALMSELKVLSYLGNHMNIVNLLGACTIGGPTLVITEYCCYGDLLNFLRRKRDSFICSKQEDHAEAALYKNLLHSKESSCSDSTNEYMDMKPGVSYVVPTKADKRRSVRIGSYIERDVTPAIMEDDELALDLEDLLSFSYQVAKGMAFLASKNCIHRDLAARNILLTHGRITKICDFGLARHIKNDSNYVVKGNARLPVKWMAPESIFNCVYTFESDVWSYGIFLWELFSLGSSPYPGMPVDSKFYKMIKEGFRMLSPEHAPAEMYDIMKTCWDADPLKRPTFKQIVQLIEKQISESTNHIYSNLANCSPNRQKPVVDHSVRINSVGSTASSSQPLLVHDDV
Protocol: as §1

[10] = target: T6, TrkA (Homo sapiens, UniProt P04629); experiment: Kinase Profiler; format: biochemical; conditions: STF-31 10 μM
T6 construct: purchased Millipore (Kinase Profiler service)
T6 sequence (P04629 33-796, species assumed): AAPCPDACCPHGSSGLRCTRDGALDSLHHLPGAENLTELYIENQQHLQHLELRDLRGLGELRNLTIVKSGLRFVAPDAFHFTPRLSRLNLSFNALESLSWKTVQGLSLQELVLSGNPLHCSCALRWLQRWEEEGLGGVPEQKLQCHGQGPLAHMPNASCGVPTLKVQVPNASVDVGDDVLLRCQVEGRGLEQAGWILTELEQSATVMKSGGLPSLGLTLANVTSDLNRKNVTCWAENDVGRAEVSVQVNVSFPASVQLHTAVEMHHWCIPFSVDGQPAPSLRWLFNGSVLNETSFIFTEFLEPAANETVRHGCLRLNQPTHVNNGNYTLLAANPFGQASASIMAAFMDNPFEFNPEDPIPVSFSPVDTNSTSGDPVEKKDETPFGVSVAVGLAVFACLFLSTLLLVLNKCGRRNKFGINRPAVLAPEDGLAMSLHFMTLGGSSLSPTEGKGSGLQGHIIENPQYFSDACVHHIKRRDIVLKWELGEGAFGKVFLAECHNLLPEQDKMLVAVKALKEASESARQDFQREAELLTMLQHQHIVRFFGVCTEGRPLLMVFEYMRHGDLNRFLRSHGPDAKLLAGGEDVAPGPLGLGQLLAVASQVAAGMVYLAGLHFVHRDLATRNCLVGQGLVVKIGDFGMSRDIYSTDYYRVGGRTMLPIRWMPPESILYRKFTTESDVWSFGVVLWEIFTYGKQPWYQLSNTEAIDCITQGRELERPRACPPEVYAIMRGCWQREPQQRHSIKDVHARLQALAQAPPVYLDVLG
Protocol: as §1

[11] = target: T7, SAPK2a (Homo sapiens, UniProt Q16539); experiment: Kinase Profiler; format: biochemical; conditions: STF-31 10 μM
T7 construct: purchased Millipore (Kinase Profiler service)
T7 sequence (Q16539 whole entry, species assumed): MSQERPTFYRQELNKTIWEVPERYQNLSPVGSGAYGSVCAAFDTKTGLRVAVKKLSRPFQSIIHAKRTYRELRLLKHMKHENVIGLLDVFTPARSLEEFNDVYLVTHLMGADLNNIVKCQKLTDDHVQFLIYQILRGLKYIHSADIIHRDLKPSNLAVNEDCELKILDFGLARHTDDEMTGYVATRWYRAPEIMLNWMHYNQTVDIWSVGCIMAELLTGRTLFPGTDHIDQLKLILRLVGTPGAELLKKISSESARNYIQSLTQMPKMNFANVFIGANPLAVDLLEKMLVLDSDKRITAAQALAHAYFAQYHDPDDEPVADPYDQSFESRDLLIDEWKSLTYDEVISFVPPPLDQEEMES
Protocol: as §1

[12] = system: ACHN; experiment: RCC panel sensitivity (Table 2); format: cell-based; conditions: VHL wild-type
[13] = system: cells with wild-type VHL; experiment: Glycolysis (lactate, extracellular acidification), wild-type VHL cells; format: cell-based; conditions: lactate and extracellular acidification
Protocol: (§2) HIF is important to adapting to low oxygen conditions through the transcription of many genes, including those involved in glucose metabolism. It was hypothesized that STF-31 might inhibit metabolic pathways, leading to necrotic cell death. To examine whether this compound alters glycolysis, intracellular lactate, which is rapidly converted from the glycolysis end product pyruvate, and extracellular acidification were measured. Baseline levels of glycolysis were lower in wild-type VHL cells compared to VHL-deficient cells (FIGS. 2, A and B), likely a result of the constitutive expression of HIF and subsequent overexpression of glucose transporters and glycolytic enzymes in the latter.

[14] = system: hexokinase; experiment: Hexokinase activity in whole-cell lysates, RCC4; format: cell-based; conditions: only after three days of treatment
Text: We then examined whether this decrease in glycolysis in response to STF-31 was due to a decrease in glucose uptake or whether STF-31 inhibited a particular glycolytic enzyme. To test this, we measured glucose uptake using 2-deoxy-D-[^3H] glucose, a non-hydrolyzable, radioactive glucose analog. STF-31 impaired glucose uptake in RCC4 and 786-O cells but not in the matched isogenic cells expressing wild-type VHL (FIGS. 2B, 6A, and 6C). RCC4/VHL cells had lower baseline levels of glucose uptake compared to RCC4 cells and were unaffected by treatment with STF-31. […] Because the phosphorylation of glucose to glucose-6-phosphate is important for preventing glucose efflux from the cell, we asked whether STF-31 might function by inhibiting the phosphorylation of glucose by hexokinase. […]
Cell Culture and Reagents. […] GLUT1 was detected with anti-GLUT1 antibody from NeoMarkers/LabVision/Fisher. For immunofluorescent studies, GLUT1, GLUT2, and GLUT3 antibodies were purchased from R&D. Pyruvate/lactate levels and hexokinase activity were both measured by fluorometric assay (BioVision and Sigma-Aldrich, respectively). ATP levels were measured by bioluminescence assay (ATP Determination Kit from Molecular Probes/Invitrogen). […]

[15] = system: ACHN shVHL; experiment: RCC panel sensitivity (Table 2); format: cell-based; conditions: VHL silenced
[16] = system: 786-0; experiment: RCC panel sensitivity (Table 2); format: cell-based; conditions: 786-0, VHL mutant
[17] = system: RCC4 cells; experiment: Lactate production, VHL-deficient cells; format: cell-based; set-up: dose or concentration left out as unconfirmed; conditions: VHL-deficient cells vs control-treated; STF-31 as printed in FIG. 2 legend
Protocol: as §2
as §1, with “Transfection of RNA oligos were performed with DnarmaFECT Reagent 1 (Dharmcon), according to manufacturer's directions. ON-TARGETplus SMART pools against HIF-1 R/ARNT were purchased from Dharmacon. Inducible shRNAmir to GLUT1 was purchased from Open Biosystems.” left out, “In vitro kinase activities were performed by Millipore Kinase Profiler.” left out

[18] = system: VHL-deficient cells; experiment: Extracellular acidification rate, VHL-deficient cells; format: cell-based; set-up: dose or concentration left out as unconfirmed; conditions: VHL-deficient cells vs control-treated; 48 hours
Protocol: as §2

[19] = system: RCC4 cells; experiment: Necrotic cell death by trypan blue, RCC4; format: cell-based; conditions: 5 μM, 3 days
Protocol: Cell Viability Assays. For 2,3-bis[2-methoxy-4-nitro-5-sulfophenyl]-2H-tetrazolium-5-carboxanilide (XTT) assays, five thousand cells were plated in 96-well plates. The next day, vehicle (DMSO) or drug was added by serial dilution. Four days later, media were aspirated, XTT solution (0.3 mg/ml of XTT (Sigma), […] N-methyl dibenxopyrazine methyl sulfate (Sigma) in phenol red-free media) was added, and the plates were incubated at 37° C. for 1-2 hours. Metabolism of XTT was quantified by measuring the absorbance at 450 nm. IC50s were calculated using linear interpolation. For clonogenic survival assays, three hundred cells were plated per 60 mm tissue culture dish. The cells were allowed to attach overnight and then treated with vehicle or drug for 14 days. Colonies were fixed and stained with crystal violet (0.1% crystal violet in 95% ethanol). All conditions were measured in triplicate and each experiment was done in duplicate or triplicate. To determine necrosis, cells were treated with drug for a given time point. Media and cells were collected, centrifugated, and resuspended in 0.4% trypan blue (Invitrogen). Live and dead cells were counted on a hematocytometer.

## CC(C)(C)c1ccc(S(=O)(=O)NCc2ccc(C(=O)Nc3cccnc3)cc2)cc1 [STF-31]
[1]
  total p53 or phospho-p53 levels: did not increase
[2]
  3-series sensitivity (sensitivity to STF-31): Yes
[3]
  3-series sensitivity (sensitivity to STF-31): No
[4]
  Kinase response to STF-31: 87
[5]
  Kinase response to STF-31: 97
[6]
  Kinase response to STF-31: 107
[7]
  Kinase response to STF-31: 104
[8]
  Kinase response to STF-31: 105
[9]
  Kinase response to STF-31: 99
[10]
  Kinase response to STF-31: 124
[11]
  Kinase response to STF-31: 127
[12]
  3-series sensitivity (sensitivity to STF-31): No
[13]
  glycolysis in cells with wild-type VHL: did not alter
[14]
  hexokinase activity in RCC4 cells: inhibited
[15]
  3-series sensitivity (sensitivity to STF-31): Yes
[16]
  3-series sensitivity (sensitivity to STF-31): Yes
[17]
  inhibition of lactate production: about 60%
[18]
  inhibition of extracellular acidification: about 60%
[19]
  RCC4 cells exhibiting necrotic cell death: greater than 80%
